Holding throughout (assay): DTP human tumour cell line panel, 48 h
For experiment [1], the system named is A549 NSCLC.
For experiment [2], the system named is HOP-92 NSCLC.
For experiment [3], the system named is SR leukemia.
Experiment [4] deals with SK-MEL-28 melanoma.
In experiment [5] the test system is HL-60(TB) leukemia.
Experiment [6] deals with NCI-H522 lung.
Experiment [7] deals with 786-0 renal.
The subject of experiment [8] is HCT-116 colon.
For experiment [9], the system named is EKVX NSCLC.
Experiment [10] relates to SF-295 CNS.

Structures are written as SMILES. Values joined by “and” are separate entries in the source; they are usually repeats but may differ in a detail not shown here. Equal entries are not always repeated.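 48-hour exposure; five concentrations; linearly interpolated endpoints. GI50 = concentration required for 50% inhibition of growth. TGI: concentration producing complete growth inhibition.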 Some results are limits rather than exact numbers.

One may read the TGI as the concentration at which net growth stops. Lower therefore signals more potent growth arrest. As to `COc1cc2c3c(c1OC)C(=O)C=C3N(S(=O)(=O)c1ccc(C)cc1)CC2`, the TGI in experiment [1] is greater than 100 µM; in [2], greater than 100 µM; in [3] it was greater than 100 µM; in experiment [4], greater than 100 µM; in experiment [5], greater than 100 µM; in experiment [6], 38.6 µM. Besides, the TGI in [7], in experiment [8], in [9] and in experiment [10] was greater than 100 µM in each case.
The term GI50 denotes the concentration at which growth is held to half of that of the control. As to `COc1ccc(-c2nn3ncccc3c2-c2ccnc(Nc3ccc4c(c3)OCCO4)n2)cc1`, the GI50 in experiment [1] is 8.41 µM; in experiment [2] it was 0.521 µM; in experiment [3], 16.1 µM; in [4], 16.9 µM; in experiment [5] it was 12.9 µM; in [6], 5.56 µM. The GI50 in experiment [7] was 8.38 µM; in [8], 8.16 µM; in [9] it was 9.61 µM; in experiment [10] it was greater than 17.2 µM. Further, the TGI in [1] is greater than 25 µM; in experiment [2], 10.6 µM; in experiment [3], greater than 25 µM; in [4], greater than 25 µM; in experiment [5], greater than 25 µM; in experiment [6] it was 23 µM. Further, the TGI in experiment [7], in [8], in experiment [9] and in experiment [10] was greater than 25 µM in each case.
Regarding `O=C(O)c1ccc(Nc2nc3nn(Cc4ccccc4)cc3c(=O)s2)cc1`, the total growth inhibition concentration (TGI) in experiment [1], in experiment [2], in experiment [3], in experiment [4], in experiment [5] and in [6] was greater than 100 µM each time. In addition, the TGI in experiment [7], in [8], in experiment [9] and in experiment [10] was greater than 100 µM throughout.
Take `C/C(O)=C(\N=O)C(=O)NCc1ccccc1`: the total growth inhibition concentration (TGI) in [1], in [2], in [3], in experiment [4], in experiment [5] and in [6] was greater than 100 µM in each case. Also, the TGI in [7], in experiment [8], in [9] and in [10] was greater than 100 µM in each case.
Consider `COc1ccc2nc3cccc([N+](=O)[O-])c3c(NCCNCCN(C)C)c2c1`, for which the GI50 in experiment [1] was 0.0712 µM; in experiment [2], 0.0588 µM; in experiment [3], 0.0329 µM; in experiment [4], 0.62 µM; in [5], 0.0449 µM; in experiment [6], 0.0102 µM. Further, the GI50 in experiment [7] was 0.0429 µM; in experiment [8], 0.25 µM; in experiment [9], 0.261 µM; in experiment [10] it was 0.0626 µM. Moreover, the TGI in [1] is 0.518 µM; in [2] it was 0.204 µM; in [4], 3.09 µM; in experiment [5] it was 0.352 µM; in experiment [6], 0.0184 µM; in experiment [7], 0.164 µM. Also, the concentration for total growth inhibition (TGI) stood at 12 µM in experiment [8], 1.43 µM in experiment [9] and 0.696 µM in experiment [10].
With `COc1cccc2nc3c(C(=O)NCCN(C)C)cccc3nc12`, the TGI in experiment [1] was greater than 100 µM; in experiment [2], 28.8 µM; in [3], greater than 37.9 µM; in experiment [4], 28.8 µM; in experiment [5], 17.5 µM; in experiment [6] it was greater than 44.1 µM. For the same compound, the TGI in [7] was greater than 84.6 µM; in experiment [8] it was 37 µM; in [9], 40.5 µM; in experiment [10], 36.8 µM.
With `Cc1c(C)c2c(c(C)c1OCC(=O)O)CC[C@@](C)(CCC[C@@H](C)CCC[C@@H](C)CCCC(C)C)O2`, the GI50 in [1] was 24.4 µM; in [2], 58.6 µM; in experiment [3] it was 50.4 µM; in experiment [4], 62.6 µM; in experiment [5], 77.2 µM; in experiment [6] it was 64.1 µM. Besides, the GI50 was 93.3 µM in [7], 33.2 µM in experiment [8], 64.2 µM in [9] and 60.1 µM in experiment [10]. Moreover, the TGI came out at 107 µM in experiment [1]; 137 µM in [2]; 500 µM in [3]; 129 µM in experiment [4]; 156 µM in experiment [5]; 154 µM in experiment [6]. Further, the TGI turned out to be 185 µM in experiment [7], 108 µM in [8], 148 µM in experiment [9] and 146 µM in experiment [10].
For `CC1(C)C(=O)C(=Cc2ccco2)C1=O`, the TGI in experiment [1], in experiment [2], in [3], in [4], in [5] and in experiment [6] was greater than 100 µM throughout. The TGI in experiment [7], in experiment [8], in experiment [9] and in experiment [10] was greater than 100 µM throughout.
For `CN(C)CCCCCNc1c2ccccc2nc2cccc([N+](=O)[O-])c12`, the GI50 is 0.00571 µM in [1]; 0.000559 µM in [3]; 0.00266 µM in [5]; 0.00154 µM and 0.000466 µM in experiment [6]; 0.00583 µM in experiment [8]; 0.0097 µM in experiment [10]. The TGI was 0.00235 µM in [1]; 0.00895 µM in experiment [2]; 0.00697 µM and > 0.0278 µM in [3]; 0.0113 µM in experiment [4]; greater than 0.1 µM in experiment [5]; 0.0029 µM and 0.00186 µM in experiment [6]. In addition, the figures for the TGI in experiment [7], in experiment [8] and in experiment [9] were 0.00798 µM, 0.012 µM and 0.0128 µM, respectively.
For the compound `COc1cc2c(c(OC)c1OC)-c1ccc(SC)c(=O)cc1C(CC(=O)Oc1cccc(F)c1)C2` (centres undefined), the TGI in [1] is greater than 100 µM; in [2], greater than 81.3 µM; in experiment [3] it was 1.47 µM; in experiment [4], greater than 100 µM; in experiment [5], 0.6 µM; in [6] it was 0.241 µM. For the same compound, the TGI in [7] was greater than 100 µM; in experiment [8] it was 1.06 µM; in experiment [9], greater than 100 µM; in [10] it was greater than 100 µM.

The record behind these values is PubChem BioAssay (NCI).
